One test concerns the target human GluN1/GluN2B NMDA receptors (Homo sapiens (Human), UniProt Q13224). Kind of test: Cell-based calcium flux (FLIPR) assay on cloned human NR1/NR2B ion channels expressed in mammalian cells. The following applies: standard assay, glutamate ~EC40, 10 μM glycine. Here is the method:
(§1) Effects of Test Articles on Cloned Human NR1/NR2B Ion Channels Expressed in Mammalian Cells
(§2) NMDA receptors are ion channels that are highly permeable to Ca^2+ ions, rendering it possible to monitor NMDA receptor function using cell-based calcium flux assay. In this assay, co-agonists glutamate and glycine are added to cells heterologously expressing human GluN1/GluN2B NMDA receptors to initiate cellular Ca^2+ influx. The time course of the changes in intracellular calcium is measured using a fluorescent dye and a FLIPR (Fluorometric Imaging Plate Reader) device.
(§3) Twenty four hours before measurements, the expression of the NMDA receptors in the stable cell line is induced with Tet-On inducible system in the presence of a non-selective NMDA receptor blocker. On the day of the experiment, cell culture media is carefully washed and the cells are loaded with Calcium 5 Dye Kit (Molecular Devices) in dye loading buffer containing 137 mM NaCl, 4 mM KCl, 2 mM CaCl2), 0.5 mM MgCl2(standard assay) or 1.5 mM MgCl2 (HTS assay), 10 mM HEPES and 5 mM D-glucose; pH 7.4. After 1 h incubation at the room temperature, the dye is washed away with the assay buffer (137 mM NaCl (standard assay) or 150 mM (HTS assay), 4 mM KCl (standard assay) or 3 mM (HTS assay), 2 mM CaCl2), 0.01 mM EDTA, 10 mM HEPES and 5 mM D-glucose; pH 7.4) In the FLIPR TETRA reader, various concentrations of the test compounds are added to the cells for 5 min while fluorescence is monitored to detect potential agonist activity. Next, co-agonists, glutamate and glycine are added for another 5 minutes. The concentration of glutamate corresponding to ˜EC40 (standard assay) or EC40 (HTS assay) is used to maximize the assay's signal window and ability to detect NMDA receptor antagonists and negative allosteric modulators. A saturating concentration (10 μM) of glycine is also present in the assay. A non-selective NMDA receptor antagonist, (+)MK-801 is used as a positive control for antagonist activity. The fluorescent signal in the presence of test compounds is quantified and normalized to the signal defined by the appropriate control wells.
Sequence of human GluN1/GluN2B NMDA receptors (Homo sapiens (Human), UniProt Q05586+Q13224) (Q13224 27-1484, other chains not shown): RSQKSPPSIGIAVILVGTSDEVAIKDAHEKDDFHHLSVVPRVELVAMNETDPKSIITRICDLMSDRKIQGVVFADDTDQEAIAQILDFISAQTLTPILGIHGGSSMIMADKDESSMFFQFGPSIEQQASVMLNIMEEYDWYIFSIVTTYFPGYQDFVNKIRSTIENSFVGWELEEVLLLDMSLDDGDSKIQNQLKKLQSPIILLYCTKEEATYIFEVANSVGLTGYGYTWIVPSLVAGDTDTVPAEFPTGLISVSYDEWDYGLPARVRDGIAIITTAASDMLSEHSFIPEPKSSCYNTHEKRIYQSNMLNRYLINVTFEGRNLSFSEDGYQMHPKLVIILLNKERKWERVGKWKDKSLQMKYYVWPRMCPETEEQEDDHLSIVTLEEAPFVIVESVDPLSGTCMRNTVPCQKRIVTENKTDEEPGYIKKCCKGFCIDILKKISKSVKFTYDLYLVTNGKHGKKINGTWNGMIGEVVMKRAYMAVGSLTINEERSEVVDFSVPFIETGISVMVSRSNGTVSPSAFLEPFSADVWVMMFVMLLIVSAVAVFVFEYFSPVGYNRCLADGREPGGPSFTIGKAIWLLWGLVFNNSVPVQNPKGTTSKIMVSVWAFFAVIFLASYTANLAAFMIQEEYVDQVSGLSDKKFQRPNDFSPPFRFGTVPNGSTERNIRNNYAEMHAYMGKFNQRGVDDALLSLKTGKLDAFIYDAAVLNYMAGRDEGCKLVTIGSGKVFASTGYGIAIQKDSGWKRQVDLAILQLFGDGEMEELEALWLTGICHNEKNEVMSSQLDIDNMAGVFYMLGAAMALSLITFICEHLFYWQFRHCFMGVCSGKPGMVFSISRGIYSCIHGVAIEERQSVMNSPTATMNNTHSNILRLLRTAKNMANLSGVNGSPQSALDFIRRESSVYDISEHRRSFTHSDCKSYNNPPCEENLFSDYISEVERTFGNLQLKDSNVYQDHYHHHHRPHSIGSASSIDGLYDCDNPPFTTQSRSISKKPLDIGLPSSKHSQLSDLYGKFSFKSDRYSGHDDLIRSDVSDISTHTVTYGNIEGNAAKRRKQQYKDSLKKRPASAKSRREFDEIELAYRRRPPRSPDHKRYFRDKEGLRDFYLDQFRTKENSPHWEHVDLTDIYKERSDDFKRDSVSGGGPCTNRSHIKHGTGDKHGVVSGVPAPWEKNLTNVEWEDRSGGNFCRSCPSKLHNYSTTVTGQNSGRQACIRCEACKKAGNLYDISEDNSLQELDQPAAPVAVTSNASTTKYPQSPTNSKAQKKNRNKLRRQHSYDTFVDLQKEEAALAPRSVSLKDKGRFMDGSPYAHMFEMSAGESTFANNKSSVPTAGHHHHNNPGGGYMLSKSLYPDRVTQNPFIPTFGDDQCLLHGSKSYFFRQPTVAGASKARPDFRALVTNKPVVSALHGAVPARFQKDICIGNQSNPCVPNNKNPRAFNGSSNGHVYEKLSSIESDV
Sequence of human GluN1/GluN2B NMDA receptors (Homo sapiens (Human), UniProt Q13224) (Q13224 27-1484, other chains not shown): as above
On to `Cc1cc(-c2cnc3cnn(CC(=O)N(C)C)c3n2)ccc1Cl` [Example 7], for which the concentration for half-maximal inhibition (IC50) stood at 0.117 µM.
Same read-out and setting: in the case of `Cc1cc(-c2cnc3cnn(CC(=O)N(C)C)c3n2)ccc1Cl` [Example 8] it was 0.134 µM; in that of `COc1ccc(-c2cnc3cnn(CC(=O)N(C)C)c3n2)cc1Cl` [Example 9, 2-[6-(3-Chloro-4-methoxy-phenyl)pyrazolo[3,4-b]pyrazin-1-yl]-N,N-dimethyl-acetamide], 0.584 µM.
Same read-out and setting: in the case of `CN(C)C(=O)Cn1ncc2ncc(-c3ccc(F)c(C(C)(F)F)c3)nc21` [Example 13, 2-[6-[3-(1,1-Difluoroethyl)-4-fluoro-phenyl]pyrazolo[3,4-b]pyrazin-1-yl]-N,N-dimethyl-acetamide] it was 0.146 µM.
As for `CN(C)C(=O)Cn1ncc2ncc(-c3ccc(Cl)c(C(C)(F)F)c3)nc21` [Example 14, 2-[6-[4-Chloro-3-(1,1-difluoroethyl)phenyl]pyrazolo[3,4-b]pyrazin-1-yl]-N,N-dimethyl-acetamide], the IC50 was found to be 0.149 µM.
Turning to `CN(C)C(=O)Cn1ncc2ncc(-c3ccc(Cl)c(C(F)(F)F)c3)nc21` [Example 15, 2-[6-[4-Chloro-3-(trifluoromethyl)phenyl]pyrazolo[3,4-b]pyrazin-1-yl]-N,N-dimethyl-acetamide], the half-maximal inhibitory concentration (IC50) was 0.272 µM.
Same read-out and setting: in the case of `CN(C)C(=O)Cn1ncc2ncc(-c3ccc(OC(F)F)c(F)c3)nc21` [Example 17, 2-[6-[4-(Difluoromethoxy)-3-fluoro-phenyl]pyrazolo[3,4-b]pyrazin-1-yl]-N,N-dimethyl-acetamide] it was 0.859 µM; in that of `CN(C)C(=O)Cn1ncc2ncc(-c3ccc(OC(F)(F)F)c(Cl)c3)nc21` [Example 19, 2-[6-[3-Chloro-4-(trifluoromethoxy)phenyl]pyrazolo[3,4-b]pyrazin-1-yl]-N,N-dimethyl-acetamide], 1.04 µM; in that of `Cc1c(F)ccc(-c2cnc3cnn(CC(=O)N(C)C)c3n2)c1F` [Example 21, 2-[6-(2,4-Difluoro-3-methyl-phenyl)pyrazolo[3,4-b]pyrazin-1-yl]-N,N-dimethyl-acetamide], 0.034 µM.
The same measure, in the same setting: in the case of `CN(C)C(=O)Cn1ncc2ncc(-c3ccc(F)c(F)c3F)nc21` [Example 23, N,N-Dimethyl-2-[6-(2,3,4-trifluorophenyl)pyrazolo[3,4-b]pyrazin-1-yl]acetamide] it was 0.962 µM; in that of `CC(F)(F)c1cc(-c2cnc3cnn(CC(=O)N4CCC4)c3n2)ccc1Cl` [Example 26, 1-(Azetidin-1-yl)-2-[6-[4-chloro-3-(1,1-difluoroethyl)phenyl]pyrazolo[3,4-b]pyrazin-1-yl]ethanone], 0.14 µM; in that of `O=C(Cn1ncc2ncc(-c3ccc(Cl)c(OC(F)F)c3)nc21)N1CCC1` [Example 29, 1-(Azetidin-1-yl)-2-[6-[4-chloro-3-(difluoromethoxy)phenyl]pyrazolo[3,4-b]pyrazin-1-yl]ethanone], 0.069 µM.
For the molecule `CC1CN(C(=O)Cn2nc(F)c3ncc(-c4ccc(F)c(C(F)F)c4)nc32)C1` [Example 31, 2-[6-[3-(Difluoromethyl)-4-fluoro-phenyl]-3-fluoro-pyrazolo[3,4-b]pyrazin-1-yl]-1-(3-methylazetidin-1-yl)ethanone], the IC50 was determined as 0.196 µM.
On the same count and under the same terms, then `O=C(Cn1nc(F)c2ncc(-c3ccc(F)c(C(F)F)c3)nc21)N1CC(F)C1` [Example 33, 2-[6-[3-(Difluoromethyl)-4-fluoro-phenyl]-3-fluoro-pyrazolo[3,4-b]pyrazin-1-yl]-1-(3-fluoroazetidin-1-yl)ethanone], with 0.077 µM; and `CC1CN(C(=O)Cn2ncc3ncc(-c4ccc(Cl)c(C(C)(F)F)c4)nc32)C1` [Example 34, 2-[6-[4-Chloro-3-(1,1-difluoroethyl)phenyl]pyrazolo[3,4-b]pyrazin-1-yl]-1-(3-methylazetidin-1-yl)ethanone], with 0.408 µM; and `CC(F)(F)c1cc(-c2cnc3cnn(CC(=O)N4CC(F)C4)c3n2)ccc1Cl` [Example 35, 2-[6-[4-Chloro-3-(1,1-difluoroethyl)phenyl]pyrazolo[3,4-b]pyrazin-1-yl]-1-(3-fluoroazetidin-1-yl)ethanone], with 0.212 µM.
The same measure, in the same setting: then `CC1CN(C(=O)Cn2ncc3ncc(-c4ccc(F)c(OC(F)F)c4)nc32)C1` [Example 36, 2-[6-[3-(Difluoromethoxy)-4-fluoro-phenyl]pyrazolo[3,4-b]pyrazin-1-yl]-1-(3-methylazetidin-1-yl)ethanone], with 0.251 µM.
On the same count and under the same terms, in the case of `CC(F)(F)c1cc(-c2cnc3cnn(CC(=O)N4CCOCC4)c3n2)ccc1Cl` [Example 38, 2-[6-[4-Chloro-3-(1,1-difluoroethyl)phenyl]pyrazolo[3,4-b]pyrazin-1-yl]-1-morpholino-ethanone] it was 1.06 µM; in that of `Cc1nnc(Cn2ncc3ncc(-c4ccc(F)c(C(F)F)c4)nc32)s1` [Example 39, 2-[[6-[3-(Difluoromethyl)-4-fluoro-phenyl]pyrazolo[3,4-b]pyrazin-1-yl]methyl]-5-methyl-1,3,4-thiadiazole], 0.162 µM.
Turning to `Cc1cc(Cn2ncc3ncc(-c4ccc(F)c(C(F)F)c4)nc32)on1` [Example 41, 5-[[6-[3-(Difluoromethyl)-4-fluoro-phenyl]pyrazolo[3,4-b]pyrazin-1-yl]methyl]-3-methyl-isoxazole], the IC50 was 0.337 µM.
On the same count and under the same terms, then `Fc1cncc(Cn2ncc3ncc(-c4ccc(F)c(C(F)F)c4)nc32)c1` [Example 42, 6-[3-(Difluoromethyl)-4-fluoro-phenyl]-1-[(5-fluoro-3-pyridyl)methyl]pyrazolo[3,4-b]pyrazine], with 0.079 µM; and `Fc1ccc(-c2cnc3cnn(Cc4cncc(Cl)c4)c3n2)cc1C(F)F` [Example 43, 1-[(5-Chloro-3-pyridyl)methyl]-6-[3-(difluoromethyl)-4-fluoro-phenyl]pyrazolo[3,4-b]pyrazine], with 0.25 µM.
The same measure, in the same setting: then `COc1cncc(Cn2ncc3ncc(-c4ccc(F)c(C(F)F)c4)nc32)c1` [Example 44, 6-[3-(Difluoromethyl)-4-fluoro-phenyl]-1-[(5-methoxy-3-pyridyl)methyl]pyrazolo[3,4-b]pyrazine], with 0.165 µM; and `N#Cc1cncc(Cn2nc(F)c3ncc(-c4ccc(F)c(C(F)F)c4)nc32)c1` [Example 46, 5-[[6-[3-(Difluoromethyl)-4-fluoro-phenyl]-3-fluoro-pyrazolo[3,4-b]pyrazin-1-yl]methyl]pyridine-3-carbonitrile], with 0.709 µM; and `Fc1ccc(-c2cnc3cnn(Cc4cncc(Cl)c4)c3n2)cc1OC(F)F` [Example 47, 1-[(5-Chloro-3-pyridyl)methyl]-6-[3-(difluoromethoxy)-4-fluoro-phenyl]pyrazolo[3,4-b]pyrazine], with 0.284 µM.
With `CN(C)C(=O)Cn1ncc2ncc(-c3ccc(Cl)cc3F)nc21` [Example 48, 2-(6-(4-Chloro-2-fluorophenyl)-1H-pyrazolo[3,4-b]pyrazin-1-yl)-N,N-dimethylacetamide], the concentration for half-maximal inhibition (IC50) was 2.81 µM.
On the same count and under the same terms, then `CN(C)C(=O)Cn1ncc2ncc(-c3ccc(OC(F)(F)F)cc3)nc21` [Example 49, N,N-Dimethyl-2-(6-(4-(trifluoromethoxy)phenyl)-1H-pyrazolo[3,4-b]pyrazin-1-yl)acetamide], with 2.74 µM.
For the molecule `CN(C)C(=O)Cn1ncc2ncc(-c3cc(F)ccc3F)nc21` [Example 50, 2-(6-(2,5-Difluorophenyl)-1H-pyrazolo[3,4-b]pyrazin-1-yl)-N,N-dimethylacetamide], the IC50 was more than 3 µM.
Take `COc1cncc(Cn2ncc3ncc(-c4ccc(F)c(OC(F)F)c4)nc32)c1` [Example 52, 6-(3-(Difluoromethoxy)-4-fluorophenyl)-1-((5-methoxypyridin-3-yl)methyl)-1H-pyrazolo[3,4-b]pyrazine]: the IC50 turned out to be 3.77 µM.

The target in a further test is human GluN1/GluN2B NMDA receptors (Homo sapiens (Human), UniProt Q05586+Q13224). The description is as above. To be noted: standard assay, glutamate ~EC40, 10 μM glycine. On the procedure:
as §1, §2, §3
Consider `CCC(=O)Cn1ncc2ncc(-c3ccc(F)c(C(F)F)c3)nc21` [Example 1, 1-[6-[3-(Difluoromethyl)-4-fluoro-phenyl]pyrazolo[3,4-b]pyrazin-1-yl]butan-2-one], for which the half-maximal inhibitory concentration (IC50) worked out at 0.022 µM.
Same read-out and setting: then `O=C(Cn1ncc2ncc(-c3ccc(Cl)c(OC(F)F)c3)nc21)C1CC1` [Example 2, 2-[6-[4-Chloro-3-(difluoromethoxy)phenyl]pyrazolo[3,4-b]pyrazin-1-yl]-1-cyclopropyl-ethanone], with 0.081 µM.
On the same count and under the same terms, then `CN(C)C(=O)Cn1ncc2ncc(-c3ccc(C(F)(F)F)s3)nc21` [Example 3, N,N-Dimethyl-2-[6-[5-(trifluoromethyl)-2-thienyl]pyrazolo[3,4-b]pyrazin-1-yl]acetamide], with 0.581 µM.
`Cc1cccc(-c2cnc3cnn(CC(=O)N(C)C)c3n2)c1` [Example 4, N,N-Dimethyl-2-[6-(m-tolyl)pyrazolo[3,4-b]pyrazin-1-yl]acetamide]: the concentration for half-maximal inhibition (IC50) was found to be 0.41 µM.

The values above are taken from US11214563B2 (JANSSEN PHARMACEUTICA NV, priority 2019, dated 2022).
